Data reported in patent US8193160B2 (priority 2006, dated 2012).
Values after ≈ are worked out from the molar mass of the structure shown.

Key:
[1] = test system: Magnaporthe vegetative mycelia, wild type Guy11; experiment: microbe, parasite or virus in culture; assay type: cell-based, Magnaporthe grisea; conditions: for MIC: Pyricularia oryzae, read-out: Minimum Inhibitory Concentration (MIC), Guy11
wild type conidia = assay type: cell-based, Magnaporthe grisea
wild type appressoria = assay type: cell-based, Magnaporthe grisea
abc3Δ conidia = assay type: cell-based, Magnaporthe grisea
ABC3 promoter = assay type: cell-based, Magnaporthe grisea

## CCCCNC(=O)n1c(NC(=O)OC)nc2ccccc21 [Benomyl]
[1]
  MIC: 2 µg/mL (≈ 6.89 µM)

## C[C@H]1CCC/C=C/[C@@H]2C[C@H](O)C[C@H]2[C@H](O)/C=C/C(=O)O1 [Brefeldin A]
[1]
  Minimum Inhibitory Concentration (MIC), Guy11: 40 µg/mL

## OC(Cn1cncn1)(Cn1cncn1)c1ccc(F)cc1F [Fluconazole]
[1]
  MIC: 2500 µg/mL (≈ 8160 µM)

## CCC(C)n1ncn(-c2ccc(N3CCN(c4ccc(OCC5COC(Cn6cncn6)(c6ccc(Cl)cc6Cl)O5)cc4)CC3)cc2)c1=O (stereo not drawn) [Itraconazole]
[1]
  MIC: 2000 µg/mL (≈ 2830 µM)

## [Cl-].[K+] [KCl, potassium chloride]
Wild type conidia
  reversal of defects associated with Valinomycin action: failed to reverse

## CCC(=C/[C@H](C)C/C=C/C(C)=C/[C@@H](C)C(=O)[C@@H](C)[C@H](O)[C@@H](C)C/C(C)=C/C(=O)O)/C=C/[C@@H]1OC(=O)C=C[C@@H]1C [Leptomycin B]
[1]
  Minimum Inhibitory Concentration (MIC), Guy11: 0.0075 µg/mL

## CC1=CC(=O)c2ccccc2C1=O [Menadione]
Wild type appressoria
  effect on host penetration compared to treatment with peroxide: slightly reduced effect

## CC(C)[C@@H]1NC(=O)[C@H](C)OC(=O)[C@@H](C(C)C)NC(=O)[C@@H](C(C)C)OC(=O)[C@H](C(C)C)NC(=O)[C@H](C)OC(=O)[C@@H](C(C)C)NC(=O)[C@@H](C(C)C)OC(=O)[C@H](C(C)C)NC(=O)[C@H](C)OC(=O)[C@@H](C(C)C)NC(=O)[C@@H](C(C)C)OC1=O [Valinomycin]
abc3Δ conidia
  effect on conidia (germ tube emergence): complete blockage of conidial germ tube emergence
  germ tube growth: inhibited
Wild type conidia
  frequency of appressoria formation: 61±2%
  germ tube growth: could withstand elevated concentration
[1]
  MIC: 20 µg/mL (≈ 18 µM)

## COc1ccc(CCN(C)CCCC(C#N)(c2ccc(OC)c(OC)c2)C(C)C)cc1OC (stereo not drawn) [Verapamil]
Wild type appressoria
  decrease in penetration peg formation: ≤ 74%
  effect on germ tube emergence or growth: without affecting

## OO [hydrogen peroxide]
Wild type Guy11 strain
  growth under oxidative stress: unaffected
ABC3 promoter
  ABC3 promoter driven destabilized-GFP fluorescence versus untreated control: four fold higher
Wild type appressoria
  appressoria able to breach the host surface: 36±2.8%
  peroxide level that blocked germ tube emergence: exceeding 5 mM

## C[n+]1ccc(-c2cc[n+](C)cc2)cc1 [paraquat]
Wild type appressoria
  effect on host penetration compared to treatment with peroxide: slightly reduced effect

## Actinomycin D
[1]
  Minimum Inhibitory Concentration (MIC), Guy11: 15 µg/mL

## Gramicidin D
[1]
  Minimum Inhibitory Concentration (MIC), Guy11: 180 µg/mL
